# Key:
# [1] = Liver microsome assay; format: in vitro ADME; settings: 0.25 mg/mL human liver microsomes
# Procedure: FIGS. 8A & 8B provide graphs showing the stability of CCF642-34 and restriction of multiple myeloma in a syngeneic mouse model by PDIA1-inhibitor CCF642-34. (A) The stability of CCF642-34 was measured against oxidative metabolism by human liver microsomes. CCF642-34 (20 μM) was incubated with 0.25 mg/mL of human liver microsomes for 5 h. The residual compound at indicated time points was measured by HPLC (Agilent 1260 Infinity II) interfaced with reverse phase C18 column using 280 nm and 245 nm detection wavelength. The standard curve of known concentrations of CCF642-34 was obtained from the area under the peak at two wavelengths, and the remaining CCF642-34 was estimated. Data are representative of two independent experiments. […] The survival of each group was monitored, and Kaplan-Meier survival analysis was performed. […]
# Liver microsome assay: 20 μM CCF642 or CCF642-34 were incubated with 1 mM NADPH and 0.25 mg/mL human liver microsomes (Sigma, Cat. No: M0567) at 37° C. […] Supernatant was obtained after centrifugation at 15,000 g for 5 min and the remaining compound in supernatant was analyzed by Agilent 1260 Infinity II HPLC with Ultra-violet (UV) detector using Gemini column, […] particle size 150×2 mm (Phenomenex). […] The relative amount of drug at each time point was determined by using the UV peak detection at wavelength 254 and 282 nm. […]
# [2] = system: RPMI-8226 cells vs CD34+ HSPCs derived from healthy bone marrow; test: In vitro colony-forming assay, myeloma cells versus normal bone marrow CD34+ cells; format: cell-based, human; settings: colonies scored on day 14
# Procedure: In vitro colony-forming assays: Mononuclear cells derived from bone marrow or purified CD34+ cells from a healthy donor, cord blood, or MM cell RPMI-8226 were grown in semi-solid methylcellulose media (MethoCult™, H4435; STEMCELL Technologies) in the presence of indicated compounds and concentrations. A total of 10,000/mL normal bone marrow CD34+ cells and 1000/mL RPMI-8226 cells were plat-ed, and colonies were scored on day 14.
# [3] = system: 5TGM1-luc myeloma cells; test: 5TGM1-luc/C57BL/KaLwRij syngeneic mouse model of myeloma; format: in vivo
# Procedure: FIGS. 8A & 8B provide graphs showing the stability of CCF642-34 and restriction of multiple myeloma in a syngeneic mouse model by PDIA1-inhibitor CCF642-34. (A) The stability of CCF642-34 was measured against oxidative metabolism by human liver microsomes. CCF642-34 (20 μM) was incubated with 0.25 mg/mL of human liver microsomes for 5 h. The residual compound at indicated time points was measured by HPLC (Agilent 1260 Infinity II) interfaced with reverse phase C18 column using 280 nm and 245 nm detection wavelength. The standard curve of known concentrations of CCF642-34 was obtained from the area under the peak at two wavelengths, and the remaining CCF642-34 was estimated. Data are representative of two independent experiments. (B) 5TGM1-luc/C57BL/KaLwRij mouse models of myeloma (3 males, 3 females per treatment group) were engrafted with 2×10^6 5TGM1-luc cells via tail vein injection and treated 3 times a week for 8 weeks per oral gavage with 20 mg/kg of CCF642-34 dissolved in 10% 2-hydroxy-propyl-o-cyclodextrin. The survival of each group was monitored, and Kaplan-Meier survival analysis was performed. All control animals required euthanasia before 52 days (due to paraparesis, weight loss, poor general condition), while 3 out of 6 mice treated with CCF642-34 lived beyond 6 months with no sign of disease.
# Mouse experiment: Animal care and procedures were conducted in accordance with institutional guidelines approved by the Institutional Animal Care and Use Committee (IACUC). […]
# To evaluate whether CCF642-34 achieved anti-myeloma efficacy after oral administration in vivo we used the 5TGM1-luc/C57BL/KaLwRij syngeneic mouse model. […] Mouse weight was monitored along with systemic symptoms of distress or disease. […] The intensity of luminescence was not good enough for the detection of bioluminescence, which is a common issue in the imaging of B57 black 6 mice. Therefore, the inventors primarily monitored the survival, and the disease burden was determined in the bone marrow cells at the time of sacrifice of a moribund mice. […]
# [4] = system: MM1.S cells; test: RNA-seq gene expression profiling; format: cell-based, human; settings: 3 μM, 6 h
# Procedure: FIGS. 7A-7H provide graphs showing CCF642-34 is selective for PDIA1 inhibition-induced ER stress response pathway. MM1.S cells were treated with 3 μM of either CCF642 or CCF642-34 for 6 h, and gene expression analysis was performed by RNA sequencing. (A,B) Volcano plots showing CCF642-34 and CCF642 compared to DMSO control. The criteria for differential expression were at least a 2-fold change with p value less than 0.05. The analysis was performed in Originlab, Version 2019b (OriginLab Corporation, Northampton, MA, USA). […] The diagram was generated using a web-based bioinformatics server. (D,E) Hierarchical clusterings with heat map of MM1.S cells treated with vehicle CCF642-34 or CCF642 are shown for response to endoplasmic reticulum stress and unfolded protein response gene sets. (F-H) Heat maps of PERK and ATF6 target genes, Nrf2, and ER-associated degradation (ERAD) pathways are compared between control and inhibitor-treated MM1.S cells. Data analysis was performed using a web-based server and the Broad Institute Morpheus software.
# RNA-seq and analysis: MM1.S cells were treated with 3 μM of either CCF642 or CCF642-34 for 6 h, and RNA was purified by using the NucleoSpin RNA kit (Takara Bio USA, Inc.; cat. #740955) according to the manufacturer's instruction. The RNA sequencings were completed as reported previously. Guan et al., Commun. Biol., 3, 1-13 (2020) The RNA-seq data were sub-mitted to the Gene Expression Omnibus (GEO) repository at the National Center for Biotechnology Information (NCBI) archives, with assigned GEO accession number GSE167097.
# [5] = 20 mg/kg oral gavage 3 times a week for 8 weeks
smiles,measurement,setting,value
NC(CC1CNc2ccccc21)C(=O)NCCCOc1ccc(N2C(=O)/C(=C/c3ccc([N+](=O)[O-])s3)SC2=S)cc1 (stereo not drawn) [CCF642-34],half-life at 20 µM,[1],> 5 h
same,potency in restricting colony formation of RPMI-8226 compared to CD34+ HSPCs,[2],20 fold
same,mice living beyond 6 months with no sign of disease,[3]; [5],3 out of 6
same,mice living beyond 180 days with no sign of disease,[3]; [5],3 out of 6
same,adverse events as assessed by weight and animal behavior,"[3]; oral treatment, 8 weeks",no obvious adverse events
same,TRIB3 upregulation compared to controls,[4],~20 fold
same,number of downregulated genes,[4],156 genes
same,number of upregulated genes,[4],206 genes
same,number of genes with changed expression compared to vehicle control,"[4]; 2-fold change, p less than 0.05",362 genes
